Assay results reported in patent US8304419B2, “Chemical compounds” (priority 2007, dated 2012).
Structures can show the parent of a compound that is named as a salt.

System: HIV wild type (WTRVA)
Assay: HeLa cell assay, wild type virus (WTRVA)
Format: cell-based, HIV-1
Design: scale not given here
Conditions: Human immunodeficiency virus 1, HeLa, HeLa cell assay; read-out: IC50 against WTRVA

N#Cc1cc(Cl)cc(Oc2c(C(F)F)ccc(CNC(=O)c3[nH]cnc3Cl)c2F)c1 [Example 252, 4-chloro-N-{[3-[(3-chloro-5-cyanophenyl)oxy]-4-(difluoromethyl)-2-fluorophenyl]methyl}-1H-imidazole-5-carboxamide] and N#Cc1cc(Cl)cc(Oc2c(Cl)ccc(CNC(=O)c3[nH]cnc3Br)c2F)c1 [Example 133, 4-bromo-N-({4-chloro-3-[(3-chloro-5-cyanophenyl)oxy]-2-fluorophenyl}methyl)-1H-imidazole-5-carboxamide trifluoroacetate] cannot be ordered by IC50: under 10 nM for the first, under 10 nM for the second.

N#Cc1cc(Cl)cc(Oc2c(Br)ccc(CNC(=O)c3[nH]cnc3Br)c2F)c1 [Example 377, 4-bromo-N-({4-bromo-3-[(3-chloro-5-cyanophenyl)oxy]-2-fluorophenyl}methyl)-1H-imidazole-5-carboxamide] and C#Cc1cc(Cl)cc(Oc2c(Cl)ccc(CNC(=O)c3[nH]cnc3Cl)c2F)c1 [Example 293, 4-chloro-N-({4-chloro-3-[(3-chloro-5-ethynylphenyl)oxy]-2-fluorophenyl}methyl)-1H-imidazole-5-carboxamide] cannot be ordered by IC50: under 10 nM for the first, under 10 nM for the second.

Cc1nc(Cl)c(C(=O)NCc2ccc(Cl)c(Oc3cc(Br)cc(C#N)c3)c2F)[nH]1 [Example 299, N-({3-[(3-bromo-5-cyanophenyl)oxy]-4-chloro-2-fluorophenyl}methyl)-4-chloro-2-methyl-1H-imidazole-5-carboxamide] and CCc1cc(C#N)cc(Oc2c(Cl)ccc(CNC(=O)c3[nH]c(C)nc3Cl)c2F)n1 [Example 274, 4-Chloro-N-({4-chloro-3-[(4-cyano-6-ethyl-2-pyridinyl)oxy]-2-fluorophenyl}methyl)-2-methyl-1H-imidazole-5-carboxamide] cannot be ordered by IC50: under 10 nM for the first, under 10 nM for the second.

Same assay, conditions: Human immunodeficiency virus 1, HeLa, HeLa-CD4-LTR-β-gal cells, wild type virus; read-out: WTRVA activity level

CN(C)CCCOc1ccc2[nH]c(C(=O)NCc3ccc(Cl)c(Oc4cc(Cl)cc(C#N)c4)c3F)cc2c1 [Example 102, N-({4-chloro-3-[(3-chloro-5-cyanophenyl)oxy]-2-fluorophenyl}methyl)-5-{[3-(dimethylamino)propyl]oxy}-1H-indole-2-carboxamide] and N#Cc1cc(Cl)cc(Oc2c(Cl)ccc(CNC(=O)c3cc4ccc(OCCO)cc4[nH]3)c2F)c1 [Example 142, N-({4-chloro-3-[(3-chloro-5-cyanophenyl)oxy]-2-fluorophenyl}methyl)-6-[(2-hydroxyethyl)oxy]-1H-indole-2-carboxamide] cannot be ordered by IC50: under 10 nM for the first, under 10 nM for the second.

Compared with CCc1c(C(=O)NCc2ccc(Cl)c(Oc3cc(Cl)cc(C#N)c3)c2F)[nH]c2ccc(OC)cc12 [Example 81, N-({4-chloro-3-[(3-chloro-5-cyanophenyl)oxy]-2-fluorophenyl}methyl)-3-ethyl-5-(methyloxy)-1H-indole-2-carboxamide trifluoroacetate], Cc1c(C(=O)NCc2ccc(Cl)c(Oc3cc(Cl)cc(C#N)c3)c2F)[nH]c2ccccc12 [Example 39, N-({4-chloro-3-[(3-chloro-5-cyanophenyl)oxy]-2-fluorophenyl}methyl)-3-methyl-1H-indole-2-carboxamide] is lower in IC50: 10 to 1000 nM for the first, under 10 nM for the second.

COC(=O)c1ccc(C(=O)NCc2ccc(Cl)c(Oc3cc(Cl)cc(C#N)c3)c2)cc1 [Example 11, Methyl 4-{[({4-chloro-3-[(3-chloro-5-cyanophenyl)oxy]phenyl}methyl)amino]carbonyl}benzoate] and COc1ccc(C(=O)NCc2ccc(Cl)c(Oc3cc(Cl)cc(C#N)c3)c2)c(C)c1 [Example 2, N-({4-chloro-3-[(3-chloro-5-cyanophenyl)oxy]phenyl}methyl)-2-methyl-4-(methyloxy)benzamide] cannot be ordered by IC50: over 1000 nM for the first, over 1000 nM for the second.

COc1cc2cc(C(=O)NCc3ccc(Cl)c(Oc4cc(Cl)cc(C#N)c4)c3F)[nH]c2cn1 [Example 46, N-({4-chloro-3-[(3-chloro-5-cyanophenyl)oxy]-2-fluorophenyl}methyl)-5-(methyloxy)-1H-pyrrolo[2,3-c]pyridine-2-carboxamide trifluoroacetate] and N#Cc1cc(Cl)cc(Oc2c(Cl)ccc(CNC(=O)c3cc4ccc(C#N)cc4[nH]3)c2F)c1 [Example 79, N-({4-chloro-3-[(3-chloro-5-cyanophenyl)oxy]-2-fluorophenyl}methyl)-6-cyano-1H-indole-2-carboxamide trifluoroacetate] cannot be ordered by IC50: under 10 nM for the first, under 10 nM for the second.

N#Cc1cc(Cl)cc(Oc2c(Cl)ccc(CNC(=O)c3cc4cccc(N)c4[nH]3)c2F)c1 [Example 113, 7-amino-N-({4-chloro-3-[(3-chloro-5-cyanophenyl)oxy]-2-fluorophenyl}methyl)-1H-indole-2-carboxamide] and N#Cc1cc(Cl)cc(Oc2c(Cl)ccc(CNC(=O)c3cc4ccccc4[nH]3)c2F)c1 [Example 28, N-({4-chloro-3-[(3-chloro-5-cyanophenyl)oxy]-2-fluorophenyl}methyl)-1H-indole-2-carboxamide] cannot be ordered by IC50: under 10 nM for the first, under 10 nM for the second.

First: N#Cc1cc(Cl)cc(Oc2c(Cl)ccc(CNC(=O)c3nc4ccccc4[nH]3)c2F)c1 [Example 35, N-({4-chloro-3-[(3-chloro-5-cyanophenyl)oxy]-2-fluorophenyl}methyl)-1H-benzimidazole-2-carboxamide]
Second: N#Cc1cc(Cl)cc(Oc2c(Cl)ccc(CNC(=O)c3nc4ccc([N+](=O)[O-])cc4[nH]3)c2F)c1 [Example 124, N-({4-chloro-3-[(3-chloro-5-cyanophenyl)oxy]-2-fluorophenyl}methyl)-5-nitro-1H-benzimidazole-2-carboxamide]
The IC50 of the first is lower: under 10 nM for the first, 10 to 1000 nM for the second.

N#Cc1cc(Cl)cc(Oc2c(Cl)ccc(CNC(=O)c3cc4cc(OCCN5CCOCC5)ccc4[nH]3)c2F)c1 [Example 103, N-({4-chloro-3-[(3-chloro-5-cyanophenyl)oxy]-2-fluorophenyl}methyl)-5-{[2-(4-morpholinyl)ethyl]oxy}-1H-indole-2-carboxamide] and N#Cc1cc(Cl)cc(Oc2c(Cl)ccc(CNC(=O)c3cc4cc([N+](=O)[O-])ccc4[nH]3)c2F)c1 [Example 19, N-({4-chloro-3-[(3-chloro-5-cyanophenyl)oxy]-2-fluorophenyl}methyl)-5-nitro-1H-indole-2-carboxamide] cannot be ordered by IC50: under 10 nM for the first, under 10 nM for the second.

Compared with N#Cc1cc(Cl)cc(Oc2c(Cl)ccc(CNC(=O)c3ccno3)c2F)c1 [Example 93, N-({4-chloro-3-[(3-chloro-5-cyanophenyl)oxy]-2-fluorophenyl}methyl)-5-isoxazolecarboxamide], N#Cc1cc(Cl)cc(Oc2c(Cl)ccc(CNC(=O)c3ncc[nH]3)c2F)c1 [Example 59, N-({4-chloro-3-[(3-chloro-5-cyanophenyl)oxy]-2-fluorophenyl}methyl)-1H-imidazole-2-carboxamide trifluoroacetate] is lower in IC50: 10 to 1000 nM for the first, under 10 nM for the second. The second is the more potent here.

Cc1cc(C)c(C(=O)NCc2ccc(Cl)c(Oc3cc(Cl)cc(C#N)c3)c2F)[nH]1 [Example 62, N-({4-chloro-3-[(3-chloro-5-cyanophenyl)oxy]-2-fluorophenyl}methyl)-3,5-dimethyl-1H-pyrrole-2-carboxamide trifluoroacetate] and N#Cc1cc(Cl)cc(Oc2c(Cl)ccc(CNC(=O)c3[nH]cnc3Br)c2F)c1 [Example 133, 4-bromo-N-({4-chloro-3-[(3-chloro-5-cyanophenyl)oxy]-2-fluorophenyl}methyl)-1H-imidazole-5-carboxamide trifluoroacetate] cannot be ordered by IC50: under 10 nM for the first, under 10 nM for the second.

COc1ccc2[nH]c(C(=O)NCc3ccc(Cl)c(Oc4cc(Cl)cc(C#N)c4)c3)cc2c1 [Example 10, N-({4-chloro-3-[(3-chloro-5-cyanophenyl)oxy]phenyl}methyl)-5-(methyloxy)-1H-indole-2-carboxamide] and N#Cc1cc(Cl)cc(Oc2cc(CNC(=O)c3ccc(S(N)(=O)=O)cc3Cl)ccc2Cl)c1 [Example 4, 4-(aminosulfonyl)-2-chloro-N-({4-chloro-3-[(3-chloro-5-cyanophenyl)oxy]phenyl}methyl)benzamide trifluoroacetate] fall in the same range of IC50: 10 to 1000 nM for the first, 10 to 1000 nM for the second.

COc1n[n+]([O-])cc2cc(C(=O)NCc3ccc(Cl)c(Oc4cc(Cl)cc(C#N)c4)c3F)[nH]c12 [Example 82, N-({4-chloro-3-[(3-chloro-5-cyanophenyl)oxy]-2-fluorophenyl}methyl)-7-(methyloxy)-1H-pyrrolo[2,3-d]pyridazine-2-carboxamide 5-oxide trifluoroacetate] and N#Cc1cc(Cl)cc(Oc2c(Cl)ccc(CNC(=O)c3cc[nH]n3)c2F)c1 [Example 95, N-({4-chloro-3-[(3-chloro-5-cyanophenyl)oxy]-2-fluorophenyl}methyl)-1H-pyrazole-3-carboxamide] fall in the same range of IC50: 10 to 1000 nM for the first, 10 to 1000 nM for the second.

First: N#Cc1cc(Cl)cc(Oc2c(Cl)ccc(CNC(=O)c3n[nH]c([N+](=O)[O-])c3Br)c2F)c1 [Example 69, 4-bromo-N-({4-chloro-3-[(3-chloro-5-cyanophenyl)oxy]-2-fluorophenyl}methyl)-5-nitro-1H-pyrazole-3-carboxamide trifluoroacetate]
Second: N#Cc1cc(Cl)cc(Oc2c(Cl)ccc(CNC(=O)c3cnccn3)c2F)c1 [Example 87, N-({4-chloro-3-[(3-chloro-5-cyanophenyl)oxy]-2-fluorophenyl}methyl)-2-pyrazinecarboxamide trifluoroacetate]
The IC50 of the first is higher: 10 to 1000 nM for the first, under 10 nM for the second. The second is the more potent here.

N#Cc1cc(Cl)cc(Oc2c(Cl)ccc(CNC(=O)c3[nH]c4cc(Cl)ccc4c3Cl)c2F)c1 [Example 55, 3,6-dichloro-N-({4-chloro-3-[(3-chloro-5-cyanophenyl)oxy]-2-fluorophenyl}methyl)-1H-indole-2-carboxamide trifluoroacetate] and N#Cc1cc(Cl)cc(Oc2c(Cl)ccc(CNC(=O)c3cccnc3)c2F)c1 [Example 94, N-({4-chloro-3-[(3-chloro-5-cyanophenyl)oxy]-2-fluorophenyl}methyl)-3-pyridinecarboxamide trifluoroacetate] fall in the same range of IC50: 10 to 1000 nM for the first, 10 to 1000 nM for the second.

CN(Cc1ccc(Cl)c(Oc2cc(Cl)cc(C#N)c2)c1F)C(=O)c1ccc[nH]1 [Example 129, N-({4-chloro-3-[(3-chloro-5-cyanophenyl)oxy]-2-fluorophenyl}methyl)-N-methyl-1H-pyrrole-2-carboxamide] and N#Cc1cc(Cl)cc(Oc2c(Cl)ccc(CNC(=O)c3cc4cc(NC(=O)c5ccncc5)ccc4[nH]3)c2F)c1 [Example 114, N-({4-chloro-3-[(3-chloro-5-cyanophenyl)oxy]-2-fluorophenyl}methyl)-5-[(4-pyridinylcarbonyl)amino]-1H-indole-2-carboxamide] cannot be ordered by IC50: under 10 nM for the first, under 10 nM for the second.
